Data on one compound can be found in patent US20020039567A1, “Methods of treating bone or cartilage conditions by the administration of creatine” (priority 1998, published 2002).

In series [1] the test system is osteoblasts (monolayer culture). The experiment in a line: Cell viability (neutral red uptake), monolayer osteoblast cell culture. The class given is cell-based, rat. The method, then: (§1) This isolation technique is based on the ability of osteoblasts to migrate from bone onto a substratum. Parietal and frontal calvariae (4 per animal) were aseptically explanted from 6 day-old IcoIbm rats. The calvariae were placed in Tyrode's balanced salt solution, calcium and magnesium free (TESS). The periosteum was enzymatically removed with 0.05% trypsin and 0.02% collagenase A (0.76 U/mg) dissolved in TBSS (40 calvaria/20 ml). The calvariae were shaken for 70 minutes in a waterbath at 37° C. They were washed with TESS and then transferred to 60 mm culture dishes (40 calvariae/dish) containing 5 ml of 0.02% collagenase A (0.76 U/mg) in culture medium BGJb Fitton-Jackson modification and placed in the incubator for 4 hours. The calvariae were then washed with culture medium B supplemented with 10% foetal calf serum (FCS). The calvariae were transferred into 60 mm culture dishes (4 frontal and 4 parietal/dish). The growth medium supplemented with 10% FCS and 50 μg/ml ascorbate was completely changed every 48 hours. The culture was kept for 3 weeks.
After 3 weeks the migrated cells were harvested. The dish was washed with TESS, and 5 ml of TESS containing 0.05% trypsin and 0.02% collagenase A (0.76 U/mg) was added. After 1 hour in the incubator, the dish was washed with culture medium BGJb supplemented with 10% FCS. The dishes containing the calvariae and cells were rinsed with serum containing media BGJb. The cells obtained were filtered through a 40 μm nylon mesh to remove bone debris and cell aggregates. The suspended cells were centrifuged at 600 g for 5 minutes. The cell pellet was resuspended in serum containing medium BGJb and centrifuged. The viability of the resuspended cells was examined by the dye exclusion of 0.4% trypan blue, and the cells were counted in a haeinocytometer. The inoculation densities were 2·10^5/10 cm^2 for monolayer and 2·10^5/30 μl for micromasses. The micromass cultures were kept for 1 hour in the incubator before 2 ml growth medium was added.
All the cultures were kept at 37° C. in a humidified atmosphere of 5% CO2, 95% air. All culture media were supplemented with 50 μg/ml ascorbate. To analyze the collagen types, 60 μg/ml beta-aminopropionitrile (beta-APN) was added to the culture medium. During cell isolation and inoculation, no ascorbate was used to increase plating efficiency. No antibiotics and no beta-glycerophosphate were added. The media were completely changed every 48 hours (60 mm culture dish 5 ml; 35 mm culture dish 2 ml).
The method described in (Lindl et al. 1994) was used.
The uptake of NR into lysosomes is […] the metabolic status of the cell.
0.5 mg Neutral red/ml growth medium, warmed up to 37° C. for at least 2 hours,
50% ethanol in 1% acetic acid
1. The cells were incubated in 2 ml/10 cm^2NR solution at 37° C. for 3 hours.
2. The supernatant was removed,
3. washed with PBS, at least 3 times, until no crystals were present.
4. Addition of 4 ml/10 cm^2 extraction buffer.
5. The absorbance of the supernatant (3 aliquots/dish) was read at 540 nm versus extraction buffer.
6. If the absorbance was higher than 1, the samples were diluted with extraction buffer.
The mean value and the standard deviation consisted of n independent experiments. The values for the individual experiments were gained from the mean of 3 aliquots of the same dish. To compare the treatment, contrasts analysis of variance models were evaluated.

Series [2] deals with osteoblasts (micromass culture). The experiment in a line: Mitochondrial activity (MTT conversion), micromass osteoblast cell culture. The class given is cell-based, rat. As to conditions: for MTT reaction: 2 weeks vs 1 week. The method, then:
as §1
After 3 weeks the migrated cells were harvested. The dish was washed with TESS, and 5 ml of TESS containing 0.05% trypsin and 0.02% collagenase A (0.76 U/mg) was added. After 1 hour in the incubator, the dish was washed with culture medium BGJb supplemented with 10% FCS. The dishes containing the calvariae and cells were rinsed with serum containing media BGJb. […] The viability of the resuspended cells was examined by the dye exclusion of 0.4% trypan blue, and the cells were counted in a haeinocytometer. […]
Originally, Mosmann, 1983 described the general principle involved in the detection of cell growth/cell death as indicated by the conversion of the tetrazolium salt (MTT) to the colored formazan by mitochondrial dehydrogenases. The concentration of this can then be measured spectrophotoinetrically. […]
6. The absorbance of the supernatant (3 aliquots/dish) was read at 550 nm versus DMSO.
If the absorbance was higher than 1, the samples were diluted with DMSO.

On to `CN(CC(=O)O)C(=N)N` [creatine], for which the “NR uptake (FIG. 1)” value is given as “no significant difference between the groups” in series [1] (10 mM and 20 mM creatine vs control, 1 and 2 weeks); “significantly higher” in series [1] (10 mM creatine, 3 weeks compared to 1 week, p<0.02); “significantly lowered NR uptake” in series [1] (20 mM creatine vs control, 3 weeks, p<0.008). Further, the “toxic effect (from NR uptake)” value in series [1] (10 mM creatine) is listed as “no toxic effect”; in series [1] (20 mM creatine, 3 weeks), “some toxic effects on the proliferation of the cells”. Further, the “NR uptake (FIG. 1), difference to control” value in series [1] (10 mM creatine vs control, 3 weeks) was “not significant”. The MTT reaction entry is “significantly higher MTT reaction” in series [2] (10 mM creatine, p<0.02) and “significantly higher MTT reaction” in series [2] (20 mM creatine, p<0.006). In series [2] (20 mM creatine, 3 weeks vs 2 weeks, p<0.015), the MTT conversion entry is given as “significantly lower MTT conversion”.
